The subject of experiment [1] is lung cancer A549 cell. Description: Sphere formation (cancer stemness) induced by euPTX3. The format is cell-based, human. The settings on record: short peptide 10 μg/mL or 225 nM + euPTX3 2.5 μg/mL, 2 weeks, FIG. 2A. As to the method: Each well of the multi-well plate with ultra-low attachment surface (Corning Inc.) was inoculated with the cell density 5×10^3 cells/well of the breast cancer MB231 cell, the lung cancer A549 cell and the nasopharyngeal cancer HONE1 cell, all of which were co-cultured with the short peptides R137, GI40, KT44 (10 μg/mL or 225 nM of the short peptide) and the polypeptide euPTX3 (2.5 μg/mL) of Example 1 in serum-free medium DMEM/F12 (Gibco) [containing B27 (Invitrogen), 20 ng/mL of epidermal growth factor (EGF; Abcam) and 10 ng/mL of basic Fibroblast Growth Factor (bFGF; Peprotech)]. After 2 weeks of cultivation, the cell spheres were observed by optical microscopy.

Experiment [2] concerns breast cancer MB231 cell. Description: Drug resistance (CDDP, 5-FU) induced by euPTX3, MTT assay. The format is cell-based, human. Particulars: MB231; short peptide 10 μg/mL or 225 nM + euPTX3 2.5 μg/mL 1 week, then 40 μM CDDP or 100 μM 5-FU 48 hours; FIG. 1D. The procedure: (§1) The cell density 1×10^4 cells/well of the breast cancer MB231 cell, the lung cancer A549 cell and the nasopharyngeal cancer HONE1 cell were co-cultured with the short peptides RI37, GI40 and KT44 (10 μg/mL or 225 nM of the short peptide) and the polypeptide euPTX3 (2.5 μg/mL) of Example 1. After 1 week of cultivation, those cancer cells were added with 40 μM of CDDP or 100 μM of 5-FU respectively and cultured for 48 hours. Based on the cell viability of the cells only co-cultured with the polypeptide euPTX3 (2.5 μg/mL) as 100%, the influence of drug resistance of the cancer cells of Example 2 using the short peptides of Example 1 could be determined according to the aforementioned MTT assay.
For orientation: Tetrazolium assays rely on reduction of a dye to a coloured formazan, in cell work by metabolically active cells.

The test system of experiment [3] is nasopharyngeal cancer HONE1 cell. The description is as above. The format is cell-based, human. The settings on record: HONE1; short peptide 10 μg/mL or 225 nM + euPTX3 2.5 μg/mL 1 week, then 40 μM CDDP or 100 μM 5-FU 48 hours; FIG. 3B. The procedure:
as §1

Experiment [4] concerns lung cancer A549 cell. Described as above. The experiment is classed as cell-based, human. Particulars: A549; short peptide 10 μg/mL or 225 nM + euPTX3 2.5 μg/mL 1 week, then 40 μM CDDP or 100 μM 5-FU 48 hours; FIG. 2B. As to the method: as §1
Experiment [5] has as its system drug-resistant 4T1R breast cancer. In words: Allograft tumor model, CDDP-resistant 4T1R cells in BALB/c mice. The experiment is classed as in vivo, mouse. The settings on record: 4T1R in BALB/c mice; for tumor growth (tumor size): 50 μg short peptide intratumorally twice weekly; for tumor growth (tumor size) / drug resistance generated by the tumor: FIG. 4A; for tumor metastasis and growth (images of tumors of various organs, epi-fluorescence radiance efficiency): IVIS imaging; for tumor metastasis (number of metastatic nodules per lung) / tumor growth (tumor weight per lung): sacrificed after six weeks; for tumor metastasis (number of metastatic nodules per lung): FIG. 4B left panel; for tumor growth (tumor weight per lung): FIG. 4B right panel; for drug resistance generated by the tumor: 50 μg short peptide intratumorally twice weekly combined with CDDP 5 mg/kg i.p. once weekly. As to the method:
In this Example, 1×10^6 mCherry fluorescent protein-labeled CDDP-resistant mouse 4T1 cells (4T1R; ATCC CRL-2539) were inoculated subcutaneously to the rear side of the back of six to eight-week-old female BALB/c mice (purchased from Laboratory Animal Center of National Cheng Kung University). After 1 week of inoculation, the mice were intraperitoneally injected with 5 mg/kg of CDDP [dissolved in 1% (w/v) DMSO] or only 1% (w/v) of DMSO once weekly, and intratumorally uninjected or injected with 50 μg of the short peptides RI37, GI40 and KT44 of Example 1 twice weekly. The mice were sacrificed after six weeks of inoculation. Spleen, kidneys, lungs and liver were obtained, tumor weight of those organs were measured according to 6 replications per group, and the metastatic activity and the number of metastatic nodules per organ were confirmed by IVIS Spectrum Imaging System 200 (Caliper). The tumor size was measured by a commercial external caliper, and the tumor volume (V) was calculated by the following formula (I): […]
In the formula (I), w was referred to tumor width, l was referred to tumor length. Each condition of the experiment was repeated at least thrice.

In the case of “KT44: artificially synthetic peptide having the amino acid sequence listed as SEQ ID NO:3 (KLVAEAMVSLGRWTHLCGTWNSEEGLTSLWVNGELAATTVEMAT; The 255th amino acid to 298th amino acid of Human sapiens PTX3 (KT44))”, in experiment [1], the “number of spheres induced by the polypeptide euPTX3” value (“number of spheres induced” below) is “could not inhibit the number of spheres”. Moreover, the “drug resistance induced by the polypeptide euPTX3 (cell viability)” value (“drug resistance induced” for short) in experiment [2] is “could not significantly inhibit the drug resistance”. Besides, the “drug resistance induced” value in experiment [3] is listed as “could not significantly inhibit the drug resistance”. In addition, the “drug resistance induced” value in experiment [4] is “could not significantly inhibit the drug resistance”. Moreover, in experiment [5], the “tumor growth (tumor size)” value is given as “could not significantly inhibit the tumor growth”; the “tumor metastasis (number of metastatic nodules per lung)” value was “could not significantly inhibit tumor metastasis”; the “tumor growth (tumor weight per lung)” value is “could not significantly inhibit tumor metastasis and growth”. In experiment [5] (FIG. 4C), the “metastatic nodules in organs (imaging)” value is “metastatic nodules was found in lungs”; the “tumor metastasis and growth (images of tumors of various organs, epi-fluorescence radiance efficiency)” value (from here on “tumor metastasis and growth”) is “could not significantly inhibit tumor metastasis and growth”.
As for “GI40: artificially synthetic short peptide having the amino acid sequence listed as SEQ ID NO:2, designed from human PTX3 (NP_002843.2) (GGGFDETLAFSGRLTGFNIWDSVLSNEEIRETGGAESCHI; The 320th amino acid to 359th amino acid of Human sapiens PTX3 (GI40))”, the “number of spheres induced” value in experiment [1] was “could effectively inhibit the number of spheres”. In addition, the “drug resistance induced” value in experiment [2] is given as “could effectively inhibit the drug resistance”. Moreover, the “drug resistance induced” value in experiment [3] is given as “could effectively inhibit the drug resistance”. Also, the “drug resistance induced” value in experiment [4] is on record as “could effectively inhibit the drug resistance”. Also, in experiment [5], the “drug resistance generated by the tumor” value is listed as “reduce the drug resistance”; the “tumor growth (tumor size)” value was “could inhibit tumor growth”; the “tumor metastasis (number of metastatic nodules per lung)” value is given as “could inhibit tumor metastasis”; the “tumor growth (tumor weight per lung)” value is “could inhibit tumor metastasis and growth”. Moreover, the “tumor metastasis and growth” value in experiment [5] (FIG. 4C) was “could inhibit tumor metastasis and growth”.
In the case of “RI37: artificially synthetic short peptide having the amino acid sequence listed as SEQ ID NO:1, designed from human PTX3 (NP_002843.2) (RPMRLESFSACIWVKATDVLNKTILFSYGTKRNPYEI; The 200th amino acid to 236th amino acid of Human sapiens PTX3 (RI37))”, the “number of spheres induced” value in experiment [1] is on record as “could effectively inhibit the number of spheres”. Also, in experiment [2], the “drug resistance induced” value is recorded as “could effectively inhibit the drug resistance”. For the same substance, the “drug resistance induced” value in experiment [3] was “could effectively inhibit the drug resistance”. For the same substance, the “drug resistance induced” value in experiment [4] was “could effectively inhibit the drug resistance”. In addition, in experiment [5], the “drug resistance generated by the tumor” value is listed as “reduce the drug resistance”; the “tumor growth (tumor size)” value is listed as “could inhibit tumor growth”; the “tumor metastasis (number of metastatic nodules per lung)” value is on record as “could inhibit tumor metastasis”; the “tumor growth (tumor weight per lung)” value was “could inhibit tumor metastasis and growth”. The “tumor metastasis and growth” value in experiment [5] (FIG. 4C) was “could inhibit tumor metastasis and growth”.
